The melting point is the temperature of the solid-liquid transition.

The molecule `Oc1ccc2c(c1)OCC(N1CCC(O)(c3ccc(F)cc3)CC1)[C@H]2O` (stereo in doubt) displayed a melting point of 159 to 160 °C.

Source of the values: patent US6958351B2, “NMDA NR2B antagonists for treatment” (Pfizer Inc, priority 2000, dated 2005).
